Laboratory results: patent publication US5948406A, “Immunogens, antibodies formed therefrom, and coating antigens useful in a diacylhydrazine immunoassay method” (Rohm and Haas Company, priority 1997, dated 1999)
In brackets after ≈: the same amount, converted by molar mass.

Assays:
[1] = tested on: ^2651 IgG (coating antibody); experiment: Direct assay (competition with 2651-HRP for immobilized ^2651 IgG coating antibody); assay type: binding, rabbit; conditions: for IC50: 2651-HRP label, absorbance at 450 nm; for Cross reactivity, RH2651: relative to RH2651; for Cross reactivity, RH5992: relative to RH5992
Source text: (§1) As used herein the term "IC50 " is defined as the concentration of the inhibitor required to reduce the absorbance to one-half the absorbance measured when no inhibitor was present. This determination is accomplished by plotting the percent (%) activity remaining versus the concentration of the inhibitor where the percent (%) activity remaining is given by:
(§2) % activity=(Ao -Ai /Ao)×100
(§3) where Ao is the measured absorbance when no inhibitor is present and Ai is the measured absorbance at the i^th concentration of inhibitor. The percent inhibition is then given by the relationship 100-(% activity).
(§4) Sensitivity in ng is calculated from the concentration of the inhibitor determined from regression analysis of the standard deviations of the replicate analyses of the standard concentrations as described in the equation: […]
(§5) where S is the sensitivity in ng, Yint is the Y-intercept of the regression line from the standard deviations of the replicate analyses in absorbance units, m is the slope of the regression line in absorbance units per ng/ml and V is the volume of sample applied to the microtiter plate in ml.
A microplate was coated with ^2651 IgG. Starting with column 1, 100 μl of 10 μg/ml ^2651 IgG were added to each well and 1:2 serial dilutions made across the plate. The plate was sealed and stored at 4° C. until ready to use. After emptying, the plate was washed with 0.01% Tween 20 in PBS and blocked with 1% BSA in PBS for about 1 hour at room temperature. After blocking, the plate was emptied and 150 μl PBS added to each well. Then 50 μl of 2651-HRP dilutions were added down the plate starting with 10 μg/ml and continuing with 1:2 dilutions down the plate. After a 1 hour room temperature incubation, the plate was washed as before and 150 μl 1-Step® Slow-TMB (peroxidase substrate from Pierce Chemical Co.) was added to each well. After one hour development, 150 μl of 1N H2 SO4 was added to stop the reaction and the absorbance of each well measured at 450 nm with the Dynatech MR5000 Microplate Reader. Controls included wells with no coating antibody and wells in which no 2651-HRP were added. A ^2651 IgG coating antibody concentration of 0.625 μg/ml and a 2561-HRP concentration of 1.25 μg/ml were determined to be the optimum concentration for use with 1-Step® Slow-TMB substrate.
The wells of a microplate were coated with 100 μl each of 0.625 μg/ml ^2651 IgG. One row was left uncoated as a control. The plate was kept at 4° C. overnight. The following day the plate was washed with 0.01% Tween 20 polysorbate in PBS and blocked with 1% BSA in PBS for at least 30 minutes. Standard solutions of RH5992, RH2651, RH2703, and RH2485 were made from 1 mg/ml stock solutions. Standard solutions of RH0345 were prepared from a 0.1 ng/ml, 0.5 ng/ml, 1 ng/ml, 5 ng/ml, 10 ng/ml, 50 ng/ml, and 100 ng/ml. After the blocking lo solution was emptied, 150 μl of the standards were added to the appropriate wells. For the zero control 150 μl of PBS was added. After a 45 minute incubation at room temperature, 50 μl of 1.25 μg/ml 2651-HRP were added to each well and the plate agitated to mix the contents. […] After incubation for 45 minutes at room temperature, the plate was washed as before and 150 μl 2651-HRP was added to each well and the plate agitated to mix the contents. […] After incubation for 45 minutes at room temperature, the plate was washed as before and 150 μl Step 1® Slow TMB added to each well. After 2 hours at room temperature, 150 μl 1N H2 SO4 was added to each well and the absorbance read at 450 nm with the Dynatech MR5000 Microplate Reader.
FIG. 16a illustrates a typical curve generated from the assay. The linear portion of the curve is visualized between 0.01 ng/ml and 10 ng/ml. A typical standard curve in the linear range of the assay is illustrated by FIG. 16b using inverse absorbances to generate a positive slope. The limit of detection was calculated as 0.096 ng/ml and the sensitivity calculated as 0.005 ng for RH5992.

[2] = molecular target: Protein A purified IgG (rabbit antibodies to diacyl hydrazines); experiment: Indirect immunoassay (inhibition of purified IgG binding to RH2703-BSA coating antigen); conditions: indirect assay; for IC50: RH2703-BSA coating antigen, absorbance at 410 nm; for Cross reactivity: IC50 of RH5992 / IC50 of analog x 100
Source text: as §1, §2, §3
The percent cross reactivity was derived by the equation: […]
where IC50,5992 is the IC50 concentration for RH5992 as determined above and IC50,analog is the IC50 concentration of the analog, i.e., RH2703, RH2651, and RH0345.
as §4, §5
RH2703-BSA was used as the coating antigen. The concentration required to give a readable response (0.3-0.5 absorbance units @ 410 nm) in the presence of the minimum quantity of antigen (RH2703) was optimized in the presence of a constant amount of protein A purified IgG (10 μl of a 20 μg/ml solution, 100 ng/well) by a checkerboard type assay (see Voller et al, Bull of World Health Organization, 53, 35 (1976)). The concentration of the Protein A purified IgG had been previously optimized in the presence of a constant amount of coating antigen (RH2703-BSA, 100 μl of a 10 μg/ml solution) to give a readable response to the minimum amount of RH5992.
Antibody concentration was optimized to be approximately 20 μg/ml (100 ng per micro well) and the coating antigen was optimized to be 25 ng/ml or 2.5 ng per micro well. When converted to a molar basis and assuming a hapten/protein binding ratio of 55, the hapten is in a three-fold molar excess of the IgG added.
The percent inhibition for RH2703, RH2651, RH5992, RH0345 and RH2485 were determined to the protein IgG in the presence of the optimized concentration of RH2703-BSA coating antigen. Each test substance was assayed at seven concentrations ranging from no test substance 0 ng/ml to 1000 ng/ml. The assay at each concentration was replicated seven times. Antigen negative and antibody negative wells provided negative controls while KLH/anti-KLH wells were used as positive controls.
Serial dilutions of the test substance stock solutions were made with coating buffer containing 0.1% TWEEN 20 polysorbate to give 1000 ng/ml, 100 ng/ml, 10 ng/ml, 1 ng/ml, 0.1 ng/ml, and 0.01 ng/ml assay concentrations. Coating buffer w/0.1% TWEEN 20 polysorbate was used as the 0 ng/ml assay concentration. The test substance assay concentrations (190 μl each) were incubated with 10 μl of the protein A IgG ([…]) for one hour at room temperature. After the incubation period, 100 μl of the test substance-IgG mixture was transferred to the appropriate microtiter well. The microtiter wells had been previously coated with the optimized concentration of RH2703-BSA and the excess protein binding sites were blocked with 0.3 ml of a 1% BSA solution in coating buffer. The plates were incubated for an additional hour at room temperature.
After the second incubation the plates were washed and goat, anti-rabbit immunoglobulin conjugated to alkaline phosphatase (0.6 mg reconstituted with 1 ml 50% glycerol and subsequently diluted with 1:5000 with blocking solution Pierce Chemical Co) was added. The plates were incubated, washed and PNPP substrate added as described in Example 5. […]

Structure (SMILES) | IC50 [1] | Cross reactivity, RH2651 [1] | Cross reactivity, RH5992 [1] | IC50 [2] | Cross reactivity [2]
CC(C)(C)N(NC(=O)c1ccc(Cl)cc1)C(=O)c1ccccc1 [RH0345] | 16.94 ng/mL (≈ 0.0512 µM) | 6.9% | 21.5% | 6.5 ng/mL | 9%
COc1cccc(C(=O)NN(C(=O)c2cc(C)cc(C)c2)C(C)(C)C)c1C [RH2485] | 4.64 ng/mL (≈ 0.0126 µM) | 25% | 78.4% | 0.05 ng/mL | –
Cc1cc(C)cc(C(=O)N(NC(=O)c2ccc(C(=O)O)cc2)C(C)(C)C)c1 [RH2651] | 1.17 ng/mL (≈ 0.00318 µM) | 100% | 311% | 1.59 ng/mL | 38%
Cc1cc(C)cc(C(=O)N(NC(=O)c2ccc(CC(=O)O)cc2)C(C)(C)C)c1 [RH2703] | 2.10 ng/mL (≈ 0.00549 µM) | 56% | 173% | 1.13 ng/mL | 54%
CCc1ccc(C(=O)NN(C(=O)c2cc(C)cc(C)c2)C(C)(C)C)cc1 [RH5992] | 3.64 ng/mL (≈ 0.0103 µM) | 32% | 100% | 0.61 ng/mL | 100%
